Test results as given in PubChem BioAssay (NCI).
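Test compounds were applied to cells in 96-well plates for 48 hours at 5 doses. GI50 is the concentration that inhibits growth by half. TGI is the concentration that stops growth completely.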

Assays:
Test in all cases: growth of human tumour cells (NCI), 48 h
[1] = tested on: OVCAR-4 ovarian
[2] = tested on: OVCAR-5 ovarian
[3] = tested on: CCRF-CEM leukemia
[4] = tested on: LOX IMVI melanoma
[5] = tested on: MCF7 breast
[6] = tested on: BT-549 breast
[7] = tested on: RPMI-8226 leukemia
[8] = tested on: UACC-257 melanoma
[9] = tested on: SW-620 colon
[10] = tested on: SN12C renal

Row | SMILES | GI50 [1] [µM] | TGI [1] [µM] | GI50 [2] [µM] | TGI [2] [µM] | GI50 [3] [µM] | TGI [3] [µM] | GI50 [4] [µM] | TGI [4] [µM] | GI50 [5] [µM] | TGI [5] [µM] | GI50 [6] [µM] | TGI [6] [µM] | GI50 [7] [µM] | TGI [7] [µM] | GI50 [8] [µM] | TGI [8] [µM] | GI50 [9] [µM] | TGI [9] [µM] | GI50 [10] [µM] | TGI [10] [µM]
1 | CCCCCCN(CCCCCC)CC(O)c1cccc2ccc(Cl)cc12 (centres undefined) | 7.44 | 33 | 2.6 | 13.7 | 11.4 | 31.7 | 4.14 | 15.6 | 7.52 | 20.3 | 14.1 | 28 | 5.2 | 22.4 | 12.9 | 28.7 | 3.82 | 15 | 10.7 | 23.6
2 | COc1ccc(N(Cc2cc(OC)c(OC)c(OC)c2)C2OC(=O)c3ccccc32)cc1 (centres undefined) | 5.95 | > 100 | 3.53 | > 100 | 0.435 | > 100 | 0.712 | > 100 | 0.386 | > 100 | 0.428 | > 100 | 0.539 | > 100 | – | – | 0.374 | > 100 | 0.703 | > 100
3 | OCCCCC#Cc1ccccc1C#Cc1cnccn1 | 28.5 | > 100 | 47.7 | > 100 | 26.9 | > 100 | 32 | > 100 | 44.6 | > 100 | 17.4 | 55.2 | 26.7 | > 100 | 26 | 62 | 62.6 | > 100 | 47.3 | > 100
4 | COc1cc(C(=O)/C=C/c2c(C(F)(F)F)nc3sccn23)cc(OC)c1OC | 3.05 | 17.6 | – | – | 1.24 | 8.34 | 1.36 | 2.89 | 1.25 | 3.33 | 2.26 | 6.87 | 1.08 | 4.53 | 1.9 | 4.2 | 1.67 | 3.56 | 1.56 | 3.69
5 | CN1C(=O)C23CC4=CC=CC(O)C4N2C(=O)C1(CO)SS3 (centres undefined) | – | 0.524 | – | 0.149 | – | – | – | 0.492 | – | 0.371 | – | 0.742 | – | 0.591 | – | 0.936 | – | 0.634 | – | 0.139
6 | COC1C(CO)OC(n2c3ccccc3c3c4c(c5c6ccccc6[nH]c5c32)C(=O)NC4=O)C(O)C1OC(=O)C(N)CCCCN (centres undefined) | 3.83 | > 50 | 3.12 | > 50 | 0.23 | > 50 | 0.261 | – | 1.13 | > 50 | 0.807 | 5.62 | > 15.7 | > 35.5 | 0.648 | > 10.2 | 0.198 | > 16.9 | 0.405 | 2.36
